Measured values published in the supplement of paper PMC10307832.

How the values were obtained:
Test in all cases: relative viability (nuclei count vs DMSO), 5 days (fraction); higher = more cells survive
[1] = compound: CC1=NN=C(O1)C2=NN=C(C=C2)N3CCC(CC3)OC4=C(C=CC(=C4)F)Cl + Cc1nc(NC(=O)N2CCC[C@H]2C(N)=O)sc1-c1ccnc(C(C)(C)C(F)(F)F)c1 [Alpelisib] (partner 2 µM)
How it was run: (§1)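 Lung cancer cell lines in 1536-well plates got either a single drug or a fixed anchor-drug dose together with five library-drug doses (not always all listed) in √10 steps, by pin tool, on the day after seeding. Nuclei were counted after 5 days, and relative viability is the treated-to-vehicle ratio of nuclei counts. Values are medians of duplicate plates.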

Tosedostat + Phenformin = compound: CC(C)C[C@@H](C(=O)N[C@H](C(=O)OC1CCCC1)c1ccccc1)[C@H](O)C(=O)NO [Tosedostat] + N=C(N)NC(=N)NCCc1ccccc1 [Phenformin] (partner 250 µM)
How it was run: as §1

Tosedostat + Navitoclax = compound: CC(C)C[C@@H](C(=O)N[C@H](C(=O)OC1CCCC1)c1ccccc1)[C@H](O)C(=O)NO [Tosedostat] + CC1(C)CCC(c2ccc(Cl)cc2)=C(CN2CCN(c3ccc(C(=O)NS(=O)(=O)c4ccc(N[C@H](CCN5CCOCC5)CSc5ccccc5)c(S(=O)(=O)C(F)(F)F)c4)cc3)CC2)C1 [Navitoclax] (partner 0.5 µM)
How it was run: as §1

[2] = compound: CC1=NN=C(O1)C2=NN=C(C=C2)N3CCC(CC3)OC4=C(C=CC(=C4)F)Cl + CCNC(=O)c1noc(-c2cc(C(C)C)c(O)cc2O)c1-c1ccc(CN2CCOCC2)cc1 [Luminespib] (partner 0.01 µM)
How it was run: as §1

Cell Line | relative viability ([1]; first compound 0.253 µM) | relative viability ([1]; first compound 0.8 µM) | relative viability ([1]; first compound 2.53 µM) | relative viability ([1]; first compound 8 µM) | relative viability (Tosedostat + Phenformin; first compound 0.02 µM) | relative viability (Tosedostat + Phenformin; first compound 0.06325 µM) | relative viability (Tosedostat + Phenformin; first compound 0.2 µM) | relative viability (Tosedostat + Phenformin; first compound 0.6325 µM) | relative viability (Tosedostat + Phenformin; first compound 2 µM) | relative viability (Tosedostat + Navitoclax; first compound 0.02 µM) | relative viability (Tosedostat + Navitoclax; first compound 0.06325 µM) | relative viability (Tosedostat + Navitoclax; first compound 0.2 µM) | relative viability (Tosedostat + Navitoclax; first compound 0.6325 µM) | relative viability (Tosedostat + Navitoclax; first compound 2 µM) | relative viability ([2]; first compound 0.253 µM) | relative viability ([2]; first compound 0.8 µM) | relative viability ([2]; first compound 2.53 µM) | relative viability ([2]; first compound 8 µM)
HCC-827 | 0.492 | 0.358 | 0.492 | 0.476 | 0.401 | 0.443 | 0.397 | 0.355 | 0.301 | 1.01 | 1.03 | 1.06 | 1.03 | 0.86 | 0.428 | 0.228 | 0.349 | 0.339
HOP-62 | 0.791 | – | 0.609 | 0.505 | 0.663 | 0.615 | 0.685 | 0.569 | 0.437 | 1.19 | 1 | 1.01 | 1.02 | 0.914 | 0.63 | 0.638 | 0.697 | 0.634
IA-LM | 0.156 | 0.157 | 0.137 | 0.157 | – | – | – | – | – | 0.731 | 0.655 | 0.875 | 0.585 | 0.603 | – | – | – | –
LC-2-ad | 0.429 | 0.371 | 0.382 | 0.341 | 0.692 | 0.555 | 0.56 | 0.438 | 0.508 | 0.614 | 0.419 | 0.473 | 0.386 | 0.264 | 0.567 | 0.488 | 0.544 | 0.483
LCLC-97TM1 | 0.28 | – | 0.237 | 0.292 | 0.402 | 0.433 | 0.445 | 0.403 | 0.439 | 0.559 | – | – | 0.633 | 0.293 | 0.394 | 0.364 | 0.336 | 0.346
LCLC-103H | 0.792 | 0.946 | 0.775 | 0.776 | 0.361 | 0.308 | 0.323 | 0.323 | 0.32 | – | – | – | – | – | 0.678 | 0.74 | 0.537 | 0.582
LK-2 | 1.03 | 1.01 | 1.17 | 1.23 | 0.38 | 0.529 | 0.455 | 0.259 | 0.347 | 0.905 | 0.855 | 0.788 | 0.909 | 0.976 | 0.2 | 0.159 | 0.176 | 0.182
LOU-NH91 | – | 0.649 | 0.713 | 0.726 | 0.823 | 0.742 | 0.691 | 0.677 | 0.481 | 0.753 | 0.657 | 0.615 | 0.543 | 0.483 | 0.317 | 0.318 | 0.307 | 0.315
LU99A | 0.547 | 0.526 | 0.559 | 0.495 | 0.925 | 0.903 | 0.821 | 0.641 | 0.547 | 0.813 | 0.869 | 0.774 | 0.832 | 0.683 | 0.224 | 0.227 | 0.246 | 0.199
LXF-289 | 0.783 | 0.789 | 0.744 | 0.67 | 0.495 | 0.493 | 0.479 | 0.495 | 0.399 | 0.965 | 0.879 | 0.938 | 0.897 | 0.958 | 0.477 | 0.378 | 0.547 | 0.395
NCI-H23 | 0.635 | – | 0.663 | 0.822 | 0.782 | 0.802 | 0.754 | 0.707 | 0.404 | 0.765 | 0.872 | 0.885 | 0.57 | 0.528 | 0.222 | 0.199 | 0.229 | 0.189
NCI-H322M | 0.0721 | 0.707 | 0.7 | 0.747 | 0.756 | 0.705 | 0.72 | 0.704 | 0.708 | 1.17 | 1.11 | 1.19 | 1.14 | 1.02 | 0.815 | 0.796 | 0.726 | 0.648
NCI-H358 | 0.72 | 0.829 | 0.778 | 0.822 | 0.387 | 0.3 | 0.223 | 0.219 | 0.238 | – | – | – | – | – | 0.287 | 0.176 | 0.177 | 0.207
NCI-H522 | – | – | – | – | 1.31 | 0.592 | 0.659 | 0.624 | 0.58 | – | – | – | – | – | 1.2 | 0.989 | 1.15 | 1.22
NCI-H650 | 1.17 | 0.948 | 1 | 0.986 | 0.497 | 0.478 | 0.435 | 0.442 | 0.405 | – | – | – | – | – | 0.77 | 0.685 | 0.703 | 0.793
NCI-H661 | 0.73 | 0.421 | 0.629 | 0.564 | 0.259 | 0.259 | 0.312 | 0.304 | 0.265 | – | – | – | – | – | 0.785 | 0.751 | 0.714 | 0.549
NCI-H1299 | 0.939 | 0.877 | 0.971 | 0.868 | – | – | – | – | – | 1.09 | 1.03 | 1.04 | 1.02 | 0.948 | – | – | – | –
NCI-H1563 | 1 | 0.952 | 0.999 | 1.09 | 0.653 | 0.703 | 0.662 | 0.722 | 0.65 | – | – | – | – | – | 0.488 | 0.52 | 0.519 | 0.532
NCI-H1623 | – | – | – | – | 0.558 | 0.609 | 0.622 | 0.519 | 0.618 | – | – | – | – | – | 0.465 | 0.52 | 0.486 | 0.433
NCI-H1650 | – | – | – | – | 0.484 | 0.501 | 0.399 | 0.399 | 0.281 | 1.25 | 1.05 | 1.27 | 1.01 | 0.825 | – | 0.194 | 0.217 | 0.205
NCI-H1703 | 0.313 | 0.388 | 0.337 | 0.395 | – | – | – | – | – | 0.89 | 0.945 | 0.898 | 0.635 | 0.691 | – | – | – | –
NCI-H2342 | – | – | – | – | 0.513 | 0.733 | 0.558 | 0.494 | 0.442 | – | – | – | – | – | 0.501 | 0.528 | 0.484 | 0.476
SW 900 | – | – | – | – | 0.496 | 0.606 | 0.478 | 0.367 | 0.417 | – | – | – | – | – | – | – | 0.175 | 0.175
